Test [1] deals with Intercellular adhesion molecule (ICAM-1), Integrin alpha-L/beta-2 (Homo sapiens) (UniProt P20701+P05362+P05107). The experiment in a line: (§1) Inhibition of LFA1 binding to full length soluble ICAM1 by gamma scintillation counter. The class given is protein-complex assay.
Test [2] has as its target Intercellular adhesion molecule (ICAM-1), Integrin alpha-L/beta-2 (Homo sapiens, UniProt P05107+P05362+P20701). The description is as §1. In kind it is protein-complex assay.

Our source for the Activity and IC50 values is ChEMBL document CHEMBL1158327, “Four new clerodane diterpenes from the leaves of Casearia guianensis which inhibit the interaction of leukocyte function antigen 1 with intercellular adhesion molecule 1” (J Nat Prod, 1997).

The structures appear in SMILES notation. The source made the active and inactive calls. The rule behind the calls is not given here.

Sequence of Intercellular adhesion molecule (ICAM-1), Integrin alpha-L/beta-2 (P20701 whole entry): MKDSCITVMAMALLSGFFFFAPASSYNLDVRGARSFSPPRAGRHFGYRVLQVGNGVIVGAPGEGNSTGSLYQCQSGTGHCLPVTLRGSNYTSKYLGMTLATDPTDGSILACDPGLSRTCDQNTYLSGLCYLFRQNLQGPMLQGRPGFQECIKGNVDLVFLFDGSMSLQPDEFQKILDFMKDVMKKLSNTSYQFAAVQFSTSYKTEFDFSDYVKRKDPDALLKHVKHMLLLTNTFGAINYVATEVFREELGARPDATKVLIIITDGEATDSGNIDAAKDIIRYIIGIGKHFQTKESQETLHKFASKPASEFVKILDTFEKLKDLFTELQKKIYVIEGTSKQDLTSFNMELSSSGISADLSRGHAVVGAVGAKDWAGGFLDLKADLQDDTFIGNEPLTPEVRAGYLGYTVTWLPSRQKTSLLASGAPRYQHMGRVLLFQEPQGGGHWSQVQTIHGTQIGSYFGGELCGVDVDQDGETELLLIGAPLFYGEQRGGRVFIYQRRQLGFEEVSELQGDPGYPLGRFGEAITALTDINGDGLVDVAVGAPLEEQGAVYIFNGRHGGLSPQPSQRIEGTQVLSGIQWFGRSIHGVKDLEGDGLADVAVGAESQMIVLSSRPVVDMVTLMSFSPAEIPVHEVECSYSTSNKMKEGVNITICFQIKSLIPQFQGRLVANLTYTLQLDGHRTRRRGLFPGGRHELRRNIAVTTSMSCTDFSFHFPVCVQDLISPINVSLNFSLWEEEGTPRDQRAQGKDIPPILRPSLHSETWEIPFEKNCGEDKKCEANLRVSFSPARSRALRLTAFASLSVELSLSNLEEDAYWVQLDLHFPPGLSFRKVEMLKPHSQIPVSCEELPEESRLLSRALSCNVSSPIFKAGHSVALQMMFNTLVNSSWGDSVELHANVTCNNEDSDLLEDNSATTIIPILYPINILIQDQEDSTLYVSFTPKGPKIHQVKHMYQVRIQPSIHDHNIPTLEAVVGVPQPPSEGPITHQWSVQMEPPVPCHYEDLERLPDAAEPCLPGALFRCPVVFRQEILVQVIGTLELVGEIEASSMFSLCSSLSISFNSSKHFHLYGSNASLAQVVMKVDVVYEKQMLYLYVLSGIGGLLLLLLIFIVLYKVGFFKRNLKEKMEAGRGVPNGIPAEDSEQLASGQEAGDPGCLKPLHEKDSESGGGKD
Sequence of Intercellular adhesion molecule (ICAM-1), Integrin alpha-L/beta-2 (P05362 whole entry): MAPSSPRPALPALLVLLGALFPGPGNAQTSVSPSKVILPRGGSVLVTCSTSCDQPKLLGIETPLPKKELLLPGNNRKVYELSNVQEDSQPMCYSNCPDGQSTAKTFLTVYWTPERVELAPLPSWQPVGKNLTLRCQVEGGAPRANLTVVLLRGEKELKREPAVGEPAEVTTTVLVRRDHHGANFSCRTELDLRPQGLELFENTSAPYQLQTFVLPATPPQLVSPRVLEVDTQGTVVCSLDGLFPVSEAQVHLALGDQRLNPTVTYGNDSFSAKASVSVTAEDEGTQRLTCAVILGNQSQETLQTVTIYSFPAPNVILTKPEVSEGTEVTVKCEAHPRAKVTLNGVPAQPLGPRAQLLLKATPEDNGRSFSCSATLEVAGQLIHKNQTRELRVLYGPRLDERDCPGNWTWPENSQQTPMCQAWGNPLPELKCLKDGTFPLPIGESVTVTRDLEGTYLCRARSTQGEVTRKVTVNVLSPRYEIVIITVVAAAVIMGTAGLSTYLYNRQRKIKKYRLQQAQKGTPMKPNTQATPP
Sequence of Intercellular adhesion molecule (ICAM-1), Integrin alpha-L/beta-2 (P05107 whole entry): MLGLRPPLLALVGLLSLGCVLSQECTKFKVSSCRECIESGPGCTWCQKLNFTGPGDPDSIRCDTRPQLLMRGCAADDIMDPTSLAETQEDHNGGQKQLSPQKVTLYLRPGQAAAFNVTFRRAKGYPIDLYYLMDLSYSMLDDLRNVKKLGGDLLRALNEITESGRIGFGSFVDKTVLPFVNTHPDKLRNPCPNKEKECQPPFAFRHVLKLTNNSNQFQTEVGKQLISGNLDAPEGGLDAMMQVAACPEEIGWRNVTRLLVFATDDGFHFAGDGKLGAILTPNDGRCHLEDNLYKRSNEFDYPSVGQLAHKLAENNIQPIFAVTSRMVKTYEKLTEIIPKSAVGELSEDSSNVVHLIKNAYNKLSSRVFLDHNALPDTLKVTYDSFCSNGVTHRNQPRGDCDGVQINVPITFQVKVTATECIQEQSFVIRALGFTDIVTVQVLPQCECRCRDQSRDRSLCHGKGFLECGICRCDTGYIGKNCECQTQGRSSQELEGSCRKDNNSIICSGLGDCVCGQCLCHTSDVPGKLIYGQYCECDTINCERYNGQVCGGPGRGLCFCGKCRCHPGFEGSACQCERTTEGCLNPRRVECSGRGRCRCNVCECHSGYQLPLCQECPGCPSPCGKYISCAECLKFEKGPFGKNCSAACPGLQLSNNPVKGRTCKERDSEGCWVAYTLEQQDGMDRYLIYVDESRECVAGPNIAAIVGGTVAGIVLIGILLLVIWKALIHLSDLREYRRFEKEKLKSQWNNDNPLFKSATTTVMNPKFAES

For `C=C/C(C)=C/C[C@]1(C)[C@H]2C[C@@H](OC(=O)C(C)CC)C[C@@H]3[C@H](OC(C)=O)OC(OC(C)=O)[C@@]32[C@H](O)C[C@@H]1C` (some centres undefined), in test [1], the result was Active. The same measure, in the same setting: in the case of `C=C/C(C)=C\C[C@]1(C)[C@H]2C[C@@H](OC(C)=O)C[C@@H]3[C@H](OC(C)=O)O[C@H](OC(C)=O)[C@@]32C(=O)C[C@@H]1C` it was “Active”. In test [2], `C=C/C(C)=C/C[C@]1(C)[C@H]2C[C@@H](OC(=O)/C(C)=C/C)C[C@@H]3[C@H](OC(C)=O)OC(OC(C)=O)[C@@]32[C@H](O)C[C@@H]1C` (some centres undefined) [CASEARINOL A] registered an IC50 of 50 µM. This counts as double-digit micromolar. Take `C=C/C(C)=C/C[C@]1(C)[C@H]2C[C@@H](OC(C)=O)C[C@@H]3[C@H](OC(C)=O)O[C@H](OC(C)=O)[C@@]32C(=O)C[C@@H]1C`: in test [1], the result was Active.

What is called IC50 is the concentration at which inhibition is half-maximal. Lower therefore signals inhibition by little substance.
